{"source": "paper PMC11983575", "about": "“Study on the synthesis and biological activity of kojic acid triazol thiosemicarbazide Schiff base derivatives” (Journal of Enzyme Inhibition and Medicinal Chemistry, 2025)", "key": {"[1]": {"assay": "ABTS radical cation scavenging activity assay", "details": "734 nm; read-out: ABTS+/IC50 (μM) ± SD", "protocol": "ABTS free radical scavenging activity was performed according to the procedure described by Zhang et al.[40] Test solution of ABTS decolourisation assay was prepared by mixing 2.45 mM potassium persulfate and 7 mM ABTS at 8:12 volume/volume ratio. The working solution was kept in the dark at room temperature for 12–18 h. Before ABTS radical scavenging test, the ABTS test solution was diluted with DMSO to absorbance of 0.7 (±0.02) at 734 nm. One millilitre of diluted ABTS test solution was added to 10 μl of DMSO or test sample. After initial mixing, the working solution was kept in the dark at room temperature for 2–6 min, and the absorbance was measured at 734 nm. This test was carried out in triplicate. DMSO was used as a control. Ascorbic acid was used as antioxidant standard for comparison of the activity. The absorbance of test samples was calculated by the following formula. ABTS scavenging ability %=absorbance of standard−absorbance of sample/absorbance of standard×100."}, "mushroom tyrosinase": {"molecular_target": "mushroom tyrosinase (Agaricus bisporus, UniProt C7FF04)", "sequence (C7FF04 1-392)": "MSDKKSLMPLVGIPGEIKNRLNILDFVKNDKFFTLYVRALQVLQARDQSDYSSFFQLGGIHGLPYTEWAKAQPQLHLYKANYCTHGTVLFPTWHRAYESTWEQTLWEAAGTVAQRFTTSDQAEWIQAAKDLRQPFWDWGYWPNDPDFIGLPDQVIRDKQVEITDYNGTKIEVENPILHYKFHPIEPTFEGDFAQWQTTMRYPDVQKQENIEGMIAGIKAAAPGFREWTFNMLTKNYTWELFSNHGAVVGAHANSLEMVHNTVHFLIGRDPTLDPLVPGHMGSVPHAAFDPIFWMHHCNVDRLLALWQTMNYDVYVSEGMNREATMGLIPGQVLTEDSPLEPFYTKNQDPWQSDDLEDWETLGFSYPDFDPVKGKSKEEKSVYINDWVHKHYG", "assay": "In vitro mushroom tyrosinase inhibition (L-DOPA substrate)", "assay_type": "biochemical", "details": "475 nm, read-out: IC50 (μM) ± SD, inhibitory tyrosinase activity", "protocol": "The mushroom tyrosinase inhibitory activity was determined according to previous described method. Briefly, 168 μl of phosphate buffer (0.1 M, pH 6.8), 10 μl of mushroom tyrosinase (0.5 mg/ml, Sigma Chemical, St. Louis, MO) and 2 μl of the inhibitor solution were placed in the wells of a 96-well micro plate. After pre-incubation for 20 min at 37 °C, 20 μl of 2.0 mg/ml L-DOPA (3,4-dihydroxyphenylalanine, Sigma Chemical, St. Louis, MO) was added and the enzyme activity was measured at 475 nm every 60 s for 180 s in a Microplate Reader (Bio-Rad Laboratories, Inc., Hercules, CA). Kojic acid and phosphate buffer were respectively used as positive and negative control. The extent of inhibition by the test compounds was expressed as the percentage of concentration necessary to achieve 50% inhibition (IC50). The percentage of inhibition was calculated as follows: inhibitory rate (%) = [Ac − At)/Ac] × 100. Ac is the absorbance of the negative control and At is the absorbance of the test compound. Each concentration was analysed in three independent experiments run in triplicate. The IC50 values were determined by the data analysis software GraphPad Prism 8 (La Jolla, CA).\nThe tyrosinase inhibition measurements of compounds 6a–6x were carried out using L-DOPA as substrate. Kojic acid was selected as a positive control compound. […]. […] Moreover, inhibitory activity of compound with hydroxyl group at papa position is better than the inhibitory activity of compound with hydroxyl group at meta position, and inhibitory activity of compound with hydroxyl group at meta position is better than the inhibitory activity of compound with hydroxyl group at ortho position. […]. […] In addition, with the increase of atomic radius, the inhibitory activity gradually decreases. (3) The inhibitory activity of alkoxy substituted compound is better than that of alkyl substituted compound. (4) Comparing the tyrosinase inhibitory activity of compounds with halogen atom (6b–6d, 6q–6s) and compounds with methyl or methoxy (6e–6f, 6t–6u), when the hydrogen (R^2) was replaced by the methyl (R^2), the inhibitory activity was decreased."}, "[2]": {"assay": "DPPH free radical scavenging activity assay", "details": "DPPH 150 μM, 30 min, 517 nm; read-out: DPPH/IC50 (μM) ± SD", "protocol": "The anti-oxidation effect on DPPH radical was determined by a slightly modified version of a previously described DPPH radical scavenging assay. Reaction mixtures consisted of 100 μl of DPPH (150 μM), 20 μl of increasing concentration of test compounds and the volume was adjusted to 200 μl in each well with DMSO. The assay solution was then incubated at room temperature (25 °C) for 30 min in the dark. After the incubation, absorbance at 517 nm was measured by using UV-2600 spectrophotometer. The experiments were undertaken in triplicate. DMSO was used as a control. Ascorbic acid was used as antioxidant standard for comparison of the activity. The calculation of DPPH radical scavenging activity was followed by this formula: DPPH radical scavenging activity %=absorbance of standard−absorbance of sample/Absorbance of standard×100"}}}
{"substance": "2-(4-((1-((5-Hydroxy-4-oxo-4H-pyran-2-yl)methyl)-1H-1,2,3-triazol-5-yl)methoxy)benzylidene)hydrazinecarbothioamide [Compound 6m]", "values": [{"measurement": "IC50", "setting": "[1]", "result": "36.17 ± 0.018", "unit": "µM"}, {"measurement": "IC50", "setting": "mushroom tyrosinase", "result": "1.58 ± 0.092", "unit": "µM"}, {"measurement": "IC50", "setting": "[2]", "result": "195 ± 0.038", "unit": "µM"}]}
